Tests used:
HLA-A24 Tgm = experiment: In vivo cross-priming assay, ex vivo IFN-gamma ELISPOT; set-up: species or system mice; details: 100 micro-g/mouse in IFA
From the text: HLA-A24 Tgm were kindly provided by Dr. F. A. Lemonnier (Jung K O, et al. J Virol; 86: 7616-24). For peptide vaccination, the mice were intradermally injected at the base of the tail with LY6K (172-191) LP (100 micro-g/mouse) solution emulsified in IFA at 7-day intervals. Seven days after the second vaccinations with LY6K (172-191) LP, mice were sacrificed to obtain inguinal lymphocytes and CD8^+ T cells were positively isolated with magnetic microbeads. The number of IFN-gamma producing CD8^+ T cells (3×10^5/well) upon stimulation with LY6K-A24 (177-186) SP or HIV-A24 SP-pulsed C1R-A2402 cells (2×10^4/well) was counted by ELISPOT assay.
HLA-A24 (HHH) transgenic mice (Tgm) were kindly provided by Dr. F. A. Lemonnier (Jung K O, et al. J Virol; 86: 7616-24). Mice were intradermally injected at the base of the tail with LY6K (172-191) LP solution (100 micro-g/mouse) emulsified in incomplete Freund's adjuvant (IFA), third times at 7-day intervals. […] The number of IFN-gamma producing CD8^+ T cells (1×10^5 cells/well) in response to stimulation with LY6K-A24 (177-186) SP-pulsed BM-DCs (2×10^4 cells/well) was counted by ex vivo ELISPOT assay (Inoue M, et al. Immunol Lett 2009; 126:67-72; Harao M, et al. Int J Cancer 2008; 123:2616-25.).

[1] = system: LY6K-specific T cells in PBMCs; experiment: Assessment of LY6K-specific CD4+ T cell responses in head and neck cancer patients, IFN-gamma ELISPOT after 1 week stimulation of PBMCs with LPs; type: cell-based, human
Description: Two phase I clinical trials of peptide-based cancer immunotherapy were reviewed and approved by the Institutional Review Board of Kumamoto University, Kumamoto, Japan (approval no. 841 and 1124). […] Tumor stage and grading were determined according to the International Union against cancer (UICC) clarification. The patients suffered from inoperable advanced head and neck cancer with recurrent or metastatic tumors who had been resistant to standard therapy were enrolled in one trial (841). The patients suffered from operable advanced head and neck cancer were enrolled in another trial (1124). These patients in this trial (1124) had been treated with postoperative peptide-vaccine immunotherapy. The patients suffered from inoperable advanced HNMT with recurrent or metastatic tumors and were resistant to standard therapy; they were enrolled in the trial under University Hospital Medical Information Network Clinical Trials Registry (UMIN-CTR) number 000008379 (CTR-8379). HNMT patients with radical resection were enrolled in the trial under UMIN-CTR number 000008380 (CTR-8380). In the latter trial, HNMT patients were treated with postoperative peptide vaccine combined with S-1, ifosfamide, or doxorubicin. […]
The PBMCs from cancer patients or healthy donors were cultured with 10 micro-g/ml of mixture of LY6K-derived LPs in a 24-well plate (2×10^6/well) in AIM-V supplemented with 5% human decomplemented plasma and IL-7 and IL-2 were added at day 0 and day 2. After 1 week of cell culture, the PBMCs were collected and the presence of LY6K-specific T cells was measured by IFN-gamma ELISPOT assays. […] The number of specific T cells expressed as spot-forming cells/10^5 cells was calculated after subtracting negative control values (background). […] Responses were evaluated to be positive when IFN-gamma were more than 10 and more than 2-fold the background. […] And responses were evaluated to be positive when IFN-gamma were more than 15 and more than 2-fold the background. […]

For KCCKIRYCNLEGPPINSSVF [LY6K (172-191)], the “IFN-gamma production by CD8+ T-cells of immunized mice upon stimulation with LY6K-A24 (177-186) SP-pulsed BM-DCs” value (HLA-A24 Tgm; HLA-A24 Tgm immunized 3 times) was “produced IFN-gamma”, the “IFN-gamma production by CD8+ T cells of immunized mice upon re-stimulation with LY6K-A24 (177-186) SP-pulsed C1R-A2402 cells” value (HLA-A24 Tgm; HLA-A24 Tgm immunized twice, base of tail, 7-day intervals, inguinal LN) was “produced IFN-gamma specifically” and the “number of LP-specific spots in vaccinated patients compared with HNMT patients before vaccination” value ([1]; FIG. 8D, Mann-Whitney U test) was “significantly larger”. For the same sequence, the “numbers of specific IFN-gamma spots in vaccinated patients compared with healthy donors” value ([1]; FIG. 8D, Mann-Whitney U test) was “significantly larger” and the “frequency of LP-specific immune response in HNMT patients after vaccination compared with before vaccination” value ([1]; FIG. 8E, Fisher's exact probability test) was “significantly higher”.
